Literature values in article PMC6245954 (European journal of medicinal chemistry, 2018).

Columns and labels:
prostate cancer = conditions: cited from earlier work
[1] = test system: two prostate cancer xenografts; conditions: even at the highest dose (0.73 mmol/kg); cited from earlier work
[2] = in words; cited from earlier work

Structure (SMILES): COc1cc(-c2oc3ccccc3c(=O)c2O)cc(OC)c1OC [Compd 3, 3′,4′,5′-trimethoxyflavonol]
- fold greater potency than quercetin (1) and fisetin (2) (prostate cancer): 5- to 16 fold
- in vivo antitumor efficacy [1]: very moderate
- bioavailability [2]: poor bioavailability
